Source: US9447157B2, “Nitration shielding peptides and methods of use thereof” (Augusta University Research Institute, Inc., priority 2013, dated 2016)

Assays:
LPS treated mice = assay: Mouse model of ALI induced by intra-tracheal LPS: BALF, weight, histopathology, MPO, lung mechanics, cytokines; format: in vivo
Protocol: The Committee on Animal Research at Georgia Regents University approved all animal protocols and procedures. Stock solutions of Escherichia coli LPS (0111:B4) were prepared in saline. […] Mice were examined 24 h after LPS treatment. At the end of the treatment lungs were flushed with 3 ml of ice-cold PBS (5 mM EDTA), excised, dipped in saline and blotted dry. A portion of the lung was quickly snap-frozen in liquid nitrogen, crushed to powder in a pre-chilled mortar and stored at −80° C. The remaining lung tissue was stored at −80° C.
Isolation of Bronchoalveolar Lavage Fluid (BALF) BALF was obtained by instilling and withdrawing 1 mL of PBS via a tracheal cannula. Part of the solution was used to determine protein levels in the BALF. In addition, cells were pelleted at 2,500 g for 10 min and resuspended in water for 15 sec to lyse red blood cells. Leukocytes were resuspended in 1 ml PBS, and total cell count determined using a haemocytometer.
Mice were anesthetized with pentobarbital (90 mg/kg, i.p.), tracheostomized with a metal 1.2 mm (internal diameter) cannula and connected to a Flexi Vent (Scireq Inc) ventilator. Ventilation was initiated at a tidal volume of 10 ml/kg and a rate of 150/min. A TLC maneuver was performed, followed by 15 sec later, by a sinusoidal 1 Hz oscillation. Subsequently, an 8 sec forced oscillatory signal (0.5-19.6 Hz) was applied, the mechanical input impedance of the respiratory system was calculated, and a model containing a constant phase tissue compartment was fit to input impedance in order to evaluate tissue elastance. Dynamic pressure-volume maneuvers were performed by step-wise increasing the airway pressure to 30 cm H2O and then reversing the process.
Lungs were inflated with 10% formalin under 15 cm H2O pressure and immersed in the same solution before tissue processing into paraffin embedded blocks and 4 μm sections were then cut stained with H&E. Histopathological assessment was conducted by two researchers who were masked to treatment group. H&E stained sections were scored for the presence of neutrophil in the alveolar space, neutrophils in the interstitial space, the existence of hyaline membranes, proteinaceous debris filling the airspaces and alveolar septal thickening as described previously (Matute-Bello, et al., Am. J. Respir. Cell Mol. Biol. 44, 725-738 (2011)).
Sections (5 μm) were cut from paraffin blocks and mounted on treated slides (Superfrost+). Slides were air dried overnight, placed in a 60° C. oven for 30 min, deparaffinized in xylene and run through graded alcohol to distilled water. Endogenous peroxidase was quenched with 0.3% H2O2 for 5 min, followed by two rinses with distilled water. Slides were pretreated with Target pH 6, (Dako), rinsed in distilled water, incubated in Power Block (Biogenex), rinsed in distilled water, placed in PBS for 5 min, incubated with primary antimyeloperoxidase (Cappel, 1:2000 dilution) for 30 min at 25° C. After two rinses in PBS, slides were incubated with a peroxidase-labeled polymer conjugated to goat anti-rabbit secondary IgG (Envision+, Dako) for 30 min and rinsed in PBS. Bound antibody was detected with the DAB+ substrate kit, (Dako). Hematoxylin was used as a counter-stain. MPO-stained slides were then evaluated by scoring (0-4) for the presence of neutrophils within the alveolar walls.
Analytes (pg/mL) were assessed with the MCYTOMAG70K assay (EMD Millipore) as previously described (Lucas, R., et al., Proc. Natl. Acad. Sci. USA 109, 2084-2089 (2012)).
Mice were used to perform additional physiological, biochemical and morphological studies to evaluate the efficacy of the NipR1 peptide in attenuating symptoms of ALI. […] After 24 h, mice were anesthetized and BALF was collected. Measurements of lung mechanics were also carried out.

[1] = system: human lung microvascular endothelial cells (HLMVEC); assay: Endothelial monolayer resistance (ECIS, TER) in LPS-challenged HLMVEC; format: cell-based; details: HLMVEC, peptide 100 ng/ml 30 min, then LPS 1 EU/ml
Protocol: The electrical resistance of the endothelial cell monolayer was measured with the electrical cell impedance sensor (ECIS) technique. In this system, the cells are cultured on gold plated electrodes. The change in resistance across the monolayer is measured through an amplifier attached to the arrays. Each study was performed when the resistance reached a plateau. The data was normalized to the initial voltage and plotted as a normalized resistance.
To examine if protein nitration by peroxynitrite is a contributing factor in endothelial barrier disruption in response to LPS, transendothelial resistance (TER) was measured in HLMVEC in the presence or absence of the peroxynitrite scavenger, MnTmPyp. HLMVEC were challenged with LPS (1 EU/ml) in the presence or absence of the peroxynitrite scavenger, MnTMPyP (25 μM).
To evaluate the role played by NOS in the barrier dysfunction, HLMVEC were exposed to LPS in the presence or absence of ETU (a non-specific NOS inhibitor) or 1400W (to inhibit iNOS). HLMVEC were challenged with LPS (1 EU/ml) in the presence or absence of the general NOS inhibitor, ETU (200 μM) or the iNOS specific inhibitor, 1400W (100 μM). The LPS-mediated decrease in TER was attenuated in the presence of ETU, but not 1400W (FIG. 1B). The important role of eNOS was then confirmed using a siRNA approach. HLMVEC were transiently transfected with a siRNA against eNOS or a scrambled control siRNA. After 48 h, there was a significant knockdown of eNOS protein levels (50%), as determined by Western blotting. Reducing eNOS protein levels preserved HLMVEC barrier function when challenged with LPS (FIG. 1C).

HLMVEC [2] = assay: Gaps formation between cells (ZO-1 immunofluorescence) in HLMVEC; format: cell-based, human; details: peptide 100 ng/ml, LPS 1 EU/ml
Protocol: HLMVEC were grown on gelatin-coated coverslips and exposed to LPS in the presence or absence of the NipR1 peptides. The cells were permeabilized and blocked for 1 h at 25° C. in 5% BSA blocking buffer. A primary antibody against ZO-1 (Invitrogen, 1:100 dilution) was added. Plates were incubated overnight at 4° C. then a secondary antibody (AlexaFluor) was added for 2 h. Slides were examined with Zeiss immunofluorescence microscope Axio Observer D1. The gaps between the cells were calculated using Zeiss Axio Observer software.

HLMVEC [3] = assay: Total protein nitration (3-NT/β-actin) in LPS-treated HLMVEC; format: cell-based, human; details: peptide 100 ng/ml 30 min, then LPS 1 EU/ml
Source text: Cell extracts were separated on 4-20% gels and electrophoretically transferred to PVDF membrane (Bio-Rad), then blocked with 5% nonfat dry milk in Tris-buffered saline. The membranes were probed with antibodies to RhoA (Cell Signaling), eNOS (BD), iNOS (Cell Signaling), or 3-Nitrotyrosine (Calbiochem). Reactive bands were visualized using chemi-luminescence (Pierce) on a Kodak 440CF image station. Band intensity was quantified using Kodak 1D image processing software. Protein loading was normalized by re-probing with mouse anti-β-actin.

RhoA [4] = molecular target: T1, RhoA (Mus musculus, UniProt Q9QUI0); assay: RhoA activity, nitration and protein in lungs of LPS treated mice; format: in vivo
T1 construct: from tissue; host or cells: mouse lung (male C57Bl/6)
Protocol: The Committee on Animal Research at Georgia Regents University approved all animal protocols and procedures. Stock solutions of Escherichia coli LPS (0111:B4) were prepared in saline. […] Mice were examined 24 h after LPS treatment. At the end of the treatment lungs were flushed with 3 ml of ice-cold PBS (5 mM EDTA), excised, dipped in saline and blotted dry. A portion of the lung was quickly snap-frozen in liquid nitrogen, crushed to powder in a pre-chilled mortar and stored at -80° C. The remaining lung tissue was stored at -80° C. […] After 24 h, mice were sacrificed and lung tissue was obtained to determine RhoA activity and RhoA nitration, LPS induced RhoA activation in the mouse lung as in HLMVEC (FIG. 7A). […] Total RhoA protein levels and basal RhoA nitration were measured. […] Likewise, basal RhoA nitration levels (FIG. 7D) were unchanged.

RhoA [5] = molecular target: T2, RhoA (Homo sapiens, UniProt P61586, Y34F); assay: Stopped-flow kinetic analysis of mant-GDP/mant-GTP binding to RhoA; details: stop-flow analysis, purified Y34F RhoA
T2 construct: polyHis (6His); made in house; host or cells: Escherichia coli BL21
Protocol: RhoA was treated with authentic peroxynitrite (500 μM, 30 min) to induce tyrosine nitration in buffered solution. For kinetic analyses, 2 μM of either mart-GTP or -GDP was mixed with RhoA (0.1 μM) in a stopped-flow instrument (SX-20, […]). Increases in fluorescent intensity mant-nucleotide binding to RhoA were then measured using excitation 350 nm and cutoff filter 395 nm for 0.2-1 second. Acquired kinetic curves for 3-5 experiments were averaged and fitted using the Pro-kineticist software to determine observed binding constants.
To test the validity of the MD data kinetic studies were performed. His-tagged human RhoA construct was expressed in the Escherichia con BL21 strain. First, the bacterial lysate was purified by 6His-tag affinity on a Ni-NTA column. Second, the proteins in the elution fraction from the affinity purification were separated by size-exclusion chromatography (FIG. 11). The fraction containing RhoA was identified both by Coomassie blue staining and Western blot analysis. The recombinant purified RhoA was subjected to rapid flow kinetics to evaluate GDP and GTP binding using fluorescently labeled guanine nucleotides. Peroxynitrite decreases GDP binding to purified RhoA. Human recombinant RhoA was exposed to authentic peroxynitrite (100 μM, 30 min) on ice. […]

[6] = peptide i.p. 0.1 mg/kg 6 h prior to i.t. LPS 2 mg/kg, 24 h

T1 sequence (Q9QUI0 whole entry): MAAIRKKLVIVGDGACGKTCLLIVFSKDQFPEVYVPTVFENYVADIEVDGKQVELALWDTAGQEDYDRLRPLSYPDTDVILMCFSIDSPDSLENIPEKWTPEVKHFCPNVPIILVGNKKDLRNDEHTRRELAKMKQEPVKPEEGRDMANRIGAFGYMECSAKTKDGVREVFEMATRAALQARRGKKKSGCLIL
T2 sequence (P61586 whole entry Y34F): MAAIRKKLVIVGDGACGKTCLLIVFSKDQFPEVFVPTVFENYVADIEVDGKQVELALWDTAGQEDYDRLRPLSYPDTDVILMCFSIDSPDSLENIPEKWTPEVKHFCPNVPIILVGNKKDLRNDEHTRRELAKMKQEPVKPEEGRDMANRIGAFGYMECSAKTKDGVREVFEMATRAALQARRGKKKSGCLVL

Substance	LPS-mediated induction of multiple pro-inflammatory cytokines and chemokines in BALF (LPS treated mice; LPS + NipR1 vs LPS, MCYTOMAG-70K assay)	Attenuation of LPS induced increase in MPO staining in the alveolar space (LPS treated mice; [6])	Attenuation of LPS-induced increase in total white blood cell counts in BALF (LPS treated mice; [6])	MPO activity in lung homogenates after LPS (LPS treated mice; [6])	Prevention of LPS-induced reduction in lung elastance (dynamic pressure-volume relationships) (LPS treated mice; [6])	Prevention of weight loss associated with LPS exposure (LPS treated mice; [6])	Reduction of LPS-induced histopathological changes in the lungs (H&E) (LPS treated mice; [6])	Inflammatory response induced by LPS (LPS treated mice; peptide i.p. prior to i.t. LPS)	Attenuation of LPS-mediated disruption of the HLMVEC barrier (preservation of TER) [1]	Cell-cell gaps after LPS (HLMVEC [2])	Increase in total protein nitration induced by LPS (HLMVEC [3])	Basal RhoA nitration levels in mouse lung (RhoA [4]; peptide alone, no LPS)	Attenuation of LPS-mediated increase in RhoA activity in the mouse lung (RhoA [4]; [6])	Attenuation of LPS-mediated increase in RhoA nitration in the mouse lung (RhoA [4]; [6])	Total RhoA protein levels in mouse lung (RhoA [4]; peptide i.p. 0.1 mg/kg, with or without LPS)	Binding of GTP (mant-GTP) to RhoA mutant (RhoA [5])
HRKKRRQRRRQFPVYVPTVF (SEQ ID NO:25) (Human immunodeficiency virus) [NipR1]	attenuated	attenuated	attenuated	attenuated	prevented	able to prevent	reduced	reduced	attenuated	reduction	unaffected	unchanged	attenuated	attenuated	Neither peptide nor LPS treatment altered	–
Y34FRhoA: purified RhoA mutant protein in which the tyrosine residue (Y) was replaced by phenylalanine	–	–	–	–	–	–	–	–	–	–	–	–	–	–	–	No binding
